Patent publication US9868766B2, “Peptides as oxytocin agonists” (Hoffmann-La Roche Inc., priority 2012, dated 2018)
Positions of bridges follow the written chain, without caps; N, C: chain ends. Non-standard residues stand in square brackets, D forms with d. Residues, ends and D or L forms follow the SMILES beside them. d(aIle) = CC[C@H](C)[C@@H](N)C(=O)O; β3hP = O=C(O)C[C@@H]1CCCN1; Sar = CNCC(=O)O

Target: T1, human Oxytocin (OTR) receptor (Homo sapiens, UniProt P30559)
T1 construct: expressed in transfected cells
T1 sequence (P30559 1-389): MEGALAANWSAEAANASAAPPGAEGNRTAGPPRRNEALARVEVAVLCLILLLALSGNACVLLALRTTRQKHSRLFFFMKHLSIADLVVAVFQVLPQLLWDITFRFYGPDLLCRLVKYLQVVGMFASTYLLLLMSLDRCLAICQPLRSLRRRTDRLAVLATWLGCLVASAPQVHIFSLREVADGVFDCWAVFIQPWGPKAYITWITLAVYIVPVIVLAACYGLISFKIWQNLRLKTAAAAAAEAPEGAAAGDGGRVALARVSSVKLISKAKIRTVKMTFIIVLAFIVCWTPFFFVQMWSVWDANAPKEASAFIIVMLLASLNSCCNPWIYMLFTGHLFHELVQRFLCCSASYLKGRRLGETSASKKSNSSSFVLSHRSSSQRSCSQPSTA
Assay: Calcium flux assay (FLIPR), agonist mode, CHO cells expressing human OTR
Type: cell-based
Conditions: for EC50: CHO cells stably expressing human OTR, calcium flux, read-out: hOT EC50; for hOT efficacy (%): maximum response normalized to endogenous full agonist = 100%
Source text: Chines Hamster Ovary (CHO) cells were transfected with expression plasmids encoding either the human V1a, the human Oxytocin (OTR) or the humanV2 receptor, the later in combination with the chimeric Gqs5 G protein to redirect the signal to Calcium flux. Stable cells were cloned by limiting dilution to yield monoclonal cell lines expressing either human V1a, human V2+Gqs5 or human OTR receptors and selected based on functional responses detected on a fluorometric imaging plate reader (FLIPR) detecting Calcium flux in the cell after receptor activation.
On the afternoon before the assay, cells were plated at a density of 50,000 cells/well into black 96 well plates with clear bottoms to allow cell inspection and fluorescence measurements from the bottom of each well. The density of cells was sufficient to yield a confluent monolayer the next day. Hanks balanced salt solution, without phenol red, containing 20 mM HEPES (pH 7.3) and 2.5 mM probenecid (assay buffer) was prepared fresh for each experiment. Compound dilutions were made using a Beckman Biomek 2000 laboratory automation workstation, in assay buffer containing 1% DMSO. The dye-loading buffer consisted of a final concentration of 2 μM Fluo-4-AM (dissolved in DMSO and pluronic acid) in assay buffer. […] Once dye-loaded, the cells were washed thoroughly on an Embla cell washer with the assay buffer to remove any unincorporated dye. Exactly 100 μl assay buffer was left in each well.
Each 96 well plate containing dye-loaded cells was placed into the FLIPR machine and the laser intensity set to a suitable level to detect low basal fluorescence. To test compounds as agonists, 25 μl diluted compound was added to the plate 10 seconds into the fluorescent measurements and fluorescent response was recorded for 5 minutes. The fluorescence data was normalized to the endogenous full agonist dose-response set at 100% for the maximum response and 0% for the minimum. […] The concentration of agonist that produced a half-maximal response is represented by the EC50 value, the logarithm of which yielded the pEC50 value.

For `CC[C@H](C)[C@@H]1NC(=O)[C@H](Cc2ccc(O)cc2)NC(=O)[C@H](C)NC(=O)CC[C@@H](C(=O)N2CCC[C@H]2C(=O)N[C@@H](CC(C)C)C(=O)NCC(N)=O)NC(=O)[C@H](CC(N)=O)NC(=O)[C@H](CCC(N)=O)NC1=O` [Example 3] (AYIQNEPLG-NH2; lactam N-6), the EC50 was 4 nM and the “hOT efficacy (%)” value was 94%.

For `CC[C@H](C)[C@@H]1NC(=O)[C@H](Cc2ccc(O)cc2)NC(=O)CNC(=O)CC[C@@H](C(=O)N2CCC[C@H]2CC(=O)N[C@@H](CC(C)C)C(=O)NCC(N)=O)NC(=O)[C@H](CC(N)=O)NC(=O)[C@H](CCC(N)=O)NC1=O` [Example 4] (GYIQNE[β3hP]LG-NH2; lactam N-6), the EC50 was 31 nM and the “hOT efficacy (%)” value was 102%.

For `CC[C@H](C)[C@@H]1NC(=O)[C@H](Cc2ccc(O)cc2)NC(=O)CNC(=O)CC[C@@H](C(=O)N2CCC[C@H]2C(=O)N[C@@H](CC(C)C)C(=O)N(C)CC(N)=O)NC(=O)[C@H](CC(N)=O)NC(=O)[C@H](CCC(N)=O)NC1=O` [Example 5] (GYIQNEPL[Sar]-NH2; lactam N-6), the EC50 was 181 nM and the “hOT efficacy (%)” value was 108%.

For `CC[C@H](C)[C@@H]1NC(=O)[C@H](Cc2ccc(O)cc2)NC(=O)CNC(=O)CC[C@@H](C(=O)N2CCC[C@H]2C(=O)NCC(=O)NCC(N)=O)NC(=O)[C@H](CC(N)=O)NC(=O)[C@H](CCC(N)=O)NC1=O` [Example 7] (GYIQNEPGG-NH2; lactam N-6), the EC50 was 124 nM and the “hOT efficacy (%)” value was 87%.

With `CC(C)C[C@@H]1NC(=O)[C@H](Cc2ccc(O)cc2)NC(=O)CNC(=O)CC[C@@H](C(=O)N2CCC[C@H]2C(=O)N[C@@H](CC(C)C)C(=O)NCC(N)=O)NC(=O)[C@H](CC(N)=O)NC(=O)[C@H](CCC(N)=O)NC1=O` [Example 8] (GYLQNEPLG-NH2; lactam N-6) the EC50 was 100 nM and the “hOT efficacy (%)” value was 92%.

In the case of `CC[C@H](C)[C@@H]1NC(=O)[C@H](Cc2ccc(O)cc2)NC(=O)CNC(=O)CC[C@@H](C(=O)N2CCC[C@H]2C(=O)N[C@@H](CC(C)C)C(=O)NCC(N)=O)NC(=O)[C@H](CC(N)=O)NC(=O)[C@H](Cc2cnc[nH]2)NC1=O` [Example 9] (GYIHNEPLG-NH2; lactam N-6), the EC50 is reported as 118 nM and the “hOT efficacy (%)” value is reported as 93%.

For `CC[C@H](C)[C@@H]1NC(=O)[C@H](Cc2ccc(O)cc2)NC(=O)CN(C)C(=O)CC[C@@H](C(=O)N2CCC[C@H]2C(=O)N[C@@H](CC(C)C)C(=O)NCC(N)=O)NC(=O)[C@H](CC(N)=O)NC(=O)[C@H](CCC(N)=O)NC1=O` [Example 12] ([Sar]YIQNEPLG-NH2; lactam N-6), the EC50 was 48 nM and the “hOT efficacy (%)” value was 82%.

`CC[C@H](C)[C@@H]1NC(=O)[C@H](Cc2ccc(O)cc2)NC(=O)CNC(=O)CC[C@H](C(=O)N2CCC[C@H]2C(=O)N[C@@H](CC(C)C)C(=O)NCC(N)=O)NC(=O)[C@H](CC(N)=O)NC(=O)[C@H](CCC(N)=O)NC1=O` [Example 14] (GYIQN[dE]PLG-NH2; lactam N-6) was tested, and the EC50 was 250 nM and the “hOT efficacy (%)” value was 92%.

In the case of `CC[C@H](C)[C@H]1NC(=O)[C@H](Cc2ccc(O)cc2)NC(=O)CNC(=O)CC[C@@H](C(=O)N2CCC[C@H]2C(=O)N[C@@H](CC(C)C)C(=O)NCC(N)=O)NC(=O)[C@H](CC(N)=O)NC(=O)[C@H](CCC(N)=O)NC1=O` [Example 22] (GY[d(aIle)]QNEPLG-NH2; lactam N-6), the EC50 is reported as 98 nM and the “hOT efficacy (%)” value is reported as 116%.

`CC[C@H](C)[C@@H]1NC(=O)[C@H](Cc2ccc(O)cc2)NC(=O)CNC(=O)CC[C@@H](C(=O)N2CCC[C@@H]2C(=O)N[C@@H](CC(C)C)C(=O)NCC(N)=O)NC(=O)[C@H](CC(N)=O)NC(=O)[C@H](CCC(N)=O)NC1=O` [Example 23] (GYIQNE[dP]LG-NH2; lactam N-6) was tested, and the EC50 was 88 nM and the “hOT efficacy (%)” value was 64%.
